The target of assay [1] is KAT7+JADE1+EAF6+ING5 4 protein complex (Homo sapiens (Human), UniProt O95251). Briefly: KAT7 JADE1 assay (SAMDI-MS acetylation of H3 1-21 peptide). It counts as biochemical. The settings on record: replicate number in parentheses.
Assay [2] has as its target KAT6A Full length enzyme (Homo sapiens (Human), UniProt Q92794). Briefly: KAT6A assay (SAMDI-MS acetylation of H3 1-21 peptide). It is filed as biochemical. The conditions noted are these: replicate number in parentheses.
The mark [3] stands for this setting: Morrison equation fit, read-out: KAT7 JADE1 Ki (nM) (replicate number).
Setting [4] is: Morrison equation fit, read-out: KAT6A Ki (nM) (replicate number).
Setting [5] is: read-out: KAT7 JADE1 Ki (nM) (replicate).
[6] abbreviates: read-out: KAT6A Ki (nM) (replicate).

For 26 molecules, Ki results are on record in patent US20250122183A1 (Pfizer Inc., priority 2023, published 2025).

Where two headings read alike, the source gives them in different places. Bounds are passed on as bounds.

Chain of KAT6A Full length enzyme (Q92794 other isoform, or with tags, fused parts or gaps): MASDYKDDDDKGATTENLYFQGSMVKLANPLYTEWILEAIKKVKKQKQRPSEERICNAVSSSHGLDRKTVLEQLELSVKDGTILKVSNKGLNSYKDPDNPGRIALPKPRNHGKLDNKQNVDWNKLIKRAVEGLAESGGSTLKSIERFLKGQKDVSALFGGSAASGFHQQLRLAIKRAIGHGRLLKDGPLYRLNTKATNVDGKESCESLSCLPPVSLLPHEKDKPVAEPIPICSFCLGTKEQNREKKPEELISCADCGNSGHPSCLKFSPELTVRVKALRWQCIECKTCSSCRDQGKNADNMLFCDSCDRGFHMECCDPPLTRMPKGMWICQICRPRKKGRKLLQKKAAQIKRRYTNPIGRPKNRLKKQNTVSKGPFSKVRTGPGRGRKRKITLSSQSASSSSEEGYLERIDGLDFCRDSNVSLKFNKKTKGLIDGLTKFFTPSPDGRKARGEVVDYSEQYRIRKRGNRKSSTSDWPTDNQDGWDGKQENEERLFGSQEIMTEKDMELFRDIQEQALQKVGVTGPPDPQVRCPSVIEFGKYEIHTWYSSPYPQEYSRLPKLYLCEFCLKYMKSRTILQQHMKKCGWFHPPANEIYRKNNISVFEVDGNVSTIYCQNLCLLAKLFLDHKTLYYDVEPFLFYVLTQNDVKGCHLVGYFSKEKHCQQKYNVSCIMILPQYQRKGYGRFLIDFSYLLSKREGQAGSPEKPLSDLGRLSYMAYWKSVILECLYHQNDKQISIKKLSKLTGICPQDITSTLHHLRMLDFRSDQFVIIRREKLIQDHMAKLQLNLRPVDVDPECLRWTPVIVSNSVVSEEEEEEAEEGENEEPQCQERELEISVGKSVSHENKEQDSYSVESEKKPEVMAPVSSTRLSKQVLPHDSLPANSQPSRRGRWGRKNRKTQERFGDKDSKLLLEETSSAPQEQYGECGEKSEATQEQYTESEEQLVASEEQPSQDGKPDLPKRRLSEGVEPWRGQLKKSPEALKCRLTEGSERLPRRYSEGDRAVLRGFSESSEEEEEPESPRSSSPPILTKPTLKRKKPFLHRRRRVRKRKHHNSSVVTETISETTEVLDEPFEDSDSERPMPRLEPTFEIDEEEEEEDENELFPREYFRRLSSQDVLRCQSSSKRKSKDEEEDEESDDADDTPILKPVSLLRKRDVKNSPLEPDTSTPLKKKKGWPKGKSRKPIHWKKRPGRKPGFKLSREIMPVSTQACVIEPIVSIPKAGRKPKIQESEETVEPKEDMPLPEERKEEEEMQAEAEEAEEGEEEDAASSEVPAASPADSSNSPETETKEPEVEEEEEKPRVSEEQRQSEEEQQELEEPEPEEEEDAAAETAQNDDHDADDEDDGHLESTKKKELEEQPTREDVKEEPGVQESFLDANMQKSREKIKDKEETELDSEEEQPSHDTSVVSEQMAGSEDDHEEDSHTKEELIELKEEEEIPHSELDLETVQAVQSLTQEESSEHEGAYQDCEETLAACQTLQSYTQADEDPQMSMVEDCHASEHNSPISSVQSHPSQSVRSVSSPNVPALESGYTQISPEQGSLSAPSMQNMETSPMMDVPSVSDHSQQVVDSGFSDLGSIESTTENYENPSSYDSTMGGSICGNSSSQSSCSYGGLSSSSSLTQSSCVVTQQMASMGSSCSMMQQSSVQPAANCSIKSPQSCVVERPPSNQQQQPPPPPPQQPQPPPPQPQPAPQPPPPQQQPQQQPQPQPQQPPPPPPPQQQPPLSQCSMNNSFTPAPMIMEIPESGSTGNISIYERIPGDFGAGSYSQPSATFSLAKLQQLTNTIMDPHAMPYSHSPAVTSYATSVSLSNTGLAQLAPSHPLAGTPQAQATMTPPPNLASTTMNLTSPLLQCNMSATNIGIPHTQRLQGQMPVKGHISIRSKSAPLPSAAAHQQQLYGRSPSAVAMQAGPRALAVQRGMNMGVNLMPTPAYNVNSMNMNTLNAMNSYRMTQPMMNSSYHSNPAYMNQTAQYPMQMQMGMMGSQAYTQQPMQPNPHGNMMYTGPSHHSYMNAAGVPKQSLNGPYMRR

In the case of “N-{6-[(3-cyclopropyl-1 H-pyrazol-5-yl)amino]-5-methoxy-1,2-benzoxazol-3-yl}-4-(4,4-difluoro-1-methylpiperidin-3-yl)-2,6-dimethoxybenzene-1-sulfonamide [Example 176]”, the results for the Ki in assay [1] (setting [3]) and in assay [2] (setting [4]) were 2.7 nM and 1 nM, respectively.

On to `COc1cc2c(NS(=O)(=O)c3c(OC)cc(-c4nccc(N(C)C)n4)cc3OC)noc2cc1Nc1cc(C2CC2)n[nH]1` [Example 216, N-{6-[(3-cyclopropyl-1H-pyrazol-5-yl)amino]-5-methoxy-1,2-benzoxazol-3-yl}-4-[4-(dimethylamino)pyrimidin-2-yl]-2,6-dimethoxybenzene-1-sulfonamide], for which the inhibition constant Ki (in general, the equilibrium dissociation constant of an inhibitor or competing ligand from its target) was 1.6 nM in assay [1] (setting [3]) and 0.2 nM in assay [2] (setting [4]).

Consider `COc1cc2c(NS(=O)(=O)c3c(OC)cc(N4CC(OC)C4)cc3OC)noc2cc1Nc1cc(C2CC2)n[nH]1` [Example 253, N-{6-[(3-cyclopropyl-1H-pyrazol-5-yl)amino]-5-methoxy-1,2-benzoxazol-3-yl}-2,6-dimethoxy-4-(3-methoxyazetidin-1-yl)benzene-1-sulfonamide], for which the Ki in assay [1] (setting [5]) is 5 nM; in assay [2] (setting [6]), 0.6 nM.

On to `CCc1cc(Nc2cc3onc(NS(=O)(=O)c4c(OC)cc(-c5cn(C)cn5)cc4OC)c3cc2OC)[nH]n1` [Example 238, N-{6-[(3-ethyl-1H-pyrazol-5-yl)amino]-5-methoxy-1,2-benzoxazol-3-yl}-2,6-dimethoxy-4-(1-methyl-1H-imidazol-4-yl)benzene-1-sulfonamide], for which the Ki turned out to be 12.7 nM in assay [1] (setting [3]) and 1.2 nM in assay [2] (setting [4]).

Regarding `COc1cc2c(NS(=O)(=O)c3c(OC)cc(N4C(=O)CCC4C)cc3OC)noc2cc1Nc1cc(C2CC2)n[nH]1` (single isomer, unassigned) [Example 244, N-{6-[(3-cyclopropyl-1 H-pyrazol-5-yl)amino]-5-methoxy-1,2-benzoxazol-3-yl}-2,6-dimethoxy-4-(2-methyl-5-oxopyrrolidin-1-yl)benzene-1-sulfonamide], the Ki amounted to 1.3 nM in assay [1] (setting [3]) and 0.2 nM in assay [2] (setting [4]).

For `COc1cc2c(NS(=O)(=O)c3c(OC)cc(C4CCCCN4C)cc3OC)noc2cc1Nc1cc(C2CC2)n[nH]1` (single isomer, unassigned) [Example 171, N-{6-[(3-cyclopropyl-1 H-pyrazol-5-yl)amino]-5-methoxy-1,2-benzoxazol-3-yl}-2,6-dimethoxy-4-(1-methylpiperidin-2-yl)benzene-1-sulfonamide], the Ki came to 8.4 nM in assay [1] (setting [3]) and 2.1 nM in assay [2] (setting [4]).

`COc1cc2c(NS(=O)(=O)c3c(OC)cc([C@@H]4CCCN4C)cc3OC)noc2cc1Nc1cc(C2CC2)n[nH]1` [Example 189]: the Ki was found to be 20.8 nM in assay [1] (setting [3]) and 3.7 nM in assay [2] (setting [4]).

Take `COCc1cc(Nc2cc3onc(NS(=O)(=O)c4c(OC)cccc4OC)c3cc2OC)n(C)n1` [Example 60, 2,6-dimethoxy-N-(5-methoxy-6-{[3-(methoxymethyl)-1-methyl-1H-pyrazol-5-yl]amino}-1,2-benzoxazol-3-yl)benzene-1-sulfonamide]: the Ki in assay [1] (setting [3]) was more than 12500 nM; in assay [2] (setting [4]), more than 377 nM.

In the case of `COc1cc2c(NS(=O)(=O)c3c(OC)cccc3OC)noc2cc1Nc1[nH]nc(C)c1C#N` [Example 45, N-{6-[(4-cyano-3-methyl-1H-pyrazol-5-yl)amino]-5-methoxy-1,2-benzoxazol-3-yl}-2,6-dimethoxybenzene-1-sulfonamide], the values for the Ki in assay [1] (setting [3]) and in assay [2] (setting [4]) were 804 nM and 2.3 nM, respectively.

Consider `COc1cc2c(NS(=O)(=O)c3c(OC)cc(C4CCCN(CC(F)(F)F)C4)cc3OC)noc2cc1Nc1cc(C2CC2)n[nH]1` (single isomer, unassigned) [Example 169, N-{6-[(3-cyclopropyl-1 H-pyrazol-5-yl)amino]-5-methoxy-1,2-benzoxazol-3-yl}-2,6-dimethoxy-4-[1-(2,2,2-trifluoroethyl)piperidin-3-yl]benzene-1-sulfonamide], for which the Ki in assay [2] (setting [4]) was determined as 0.5 nM.

In the case of `CCc1cc(Nc2cc3onc(NS(=O)(=O)c4c(OC)cc(-c5nccn5C)cc4OC)c3cc2OC)[nH]n1` [Example 237, N-{6-[(3-ethyl-1H-pyrazol-5-yl)amino]-5-methoxy-1,2-benzoxazol-3-yl}-2,6-dimethoxy-4-(1-methyl-1H-imidazol-2-yl)benzene-1-sulfonamide], the Ki in assay [1] (setting [3]) came to 15.4 nM; in assay [2] (setting [4]), 1.4 nM.

`COc1cc2c(NS(=O)(=O)c3c(OC)cc(C4CCCN(CC(F)F)C4)cc3OC)noc2cc1Nc1cc(C2CC2)n[nH]1` (single isomer, unassigned) [Example 168, N-{6-[(3-cyclopropyl-1 H-pyrazol-5-yl)amino]-5-methoxy-1,2-benzoxazol-3-yl}-4-[1-(2,2-difluoroethyl)piperidin-3-yl]-2,6-dimethoxybenzene-1-sulfonamide]: the Ki in assay [1] (setting [3]) worked out at 2.7 nM; in assay [2] (setting [4]), 0.8 nM.

In the case of `COc1cc2c(NS(=O)(=O)c3c(OC)cc(C4CCO4)cc3OC)noc2cc1Nc1cc(C2CC2)n[nH]1` (stereo not shown) [Example 276, N-{6-[(3-cyclopropyl-1H-pyrazol-5-yl)amino]-5-methoxy-1,2-benzoxazol-3-yl}-2,6-dimethoxy-4-(oxetan-2-yl)benzene-1-sulfonamide], the Ki amounted to 16.8 nM in assay [1] (setting [5]) and 1.3 nM in assay [2] (setting [6]).

For the molecule `COc1cc2c(NS(=O)(=O)c3c(OC)cccc3OC)noc2cc1Nc1noc(C)n1` [Example 37, 2,6-dimethoxy-N-{5-methoxy-6-[(5-methyl-1,2,4-oxadiazol-3-yl)amino]-1,2-benzoxazol-3-yl}benzene-1-sulfonamide], the Ki in assay [1] (setting [3]) is more than 2340 nM; in assay [2] (setting [4]), 15.9 nM.

In the case of `COc1cc2c(NS(=O)(=O)c3c(OC)cc(C4CCN([C@@H]5CCOC5)C4)cc3OC)noc2cc1Nc1cc(C2CC2)n[nH]1` (single isomer, unassigned) [Example 161], the Ki in assay [1] (setting [3]) is 5.5 nM; in assay [2] (setting [4]), 1.2 nM.

Turning to `COc1cc2c(NS(=O)(=O)c3c(OC)cc(C4CCCN(CC(F)(F)F)C4)cc3OC)noc2cc1Nc1cc(C2CC2)n[nH]1` (single isomer, unassigned) [Example 170, N-{6-[(3-cyclopropyl-1 H-pyrazol-5-yl)amino]-5-methoxy-1,2-benzoxazol-3-yl}-2,6-dimethoxy-4-[1-(2,2,2-trifluoroethyl)piperidin-3-yl]benzene-1-sulfonamide], the Ki in assay [2] (setting [4]) came to 0.4 nM.

As for `COc1cc2c(NS(=O)(=O)c3c(OC)cccc3OC)noc2cc1Nc1nc[nH]n1` [Example 61, 2,6-dimethoxy-N-{5-methoxy-6-[(1H-1,2,4-triazol-3-yl)amino]-1,2-benzoxazol-3-yl}benzene-1-sulfonamide], the Ki in assay [1] (setting [3]) was determined as 54.7 nM; in assay [2] (setting [4]) it was 0.2 nM.

For the molecule `COc1cc2c(NS(=O)(=O)c3c(OC)cc(C4C[C@H](C)CN4C)cc3OC)noc2cc1Nc1cc(C2CC2)n[nH]1` (stereo partly drawn) [Example 182, N-{6-[(3-cyclopropyl-1H-pyrazol-5-yl)amino]-5-methoxy-1,2-benzoxazol-3-yl}-4-[(4S)-1,4-dimethylpyrrolidin-2-yl]-2,6-dimethoxybenzene-1-sulfonamide], the values for the Ki in assay [1] (setting [3]) and in assay [2] (setting [4]) were 6.4 nM and 0.8 nM, respectively.

As to `COc1cc2c(NS(=O)(=O)c3c(OC)cc(C4CCN([C@@H]5CCOC5)C4)cc3OC)noc2cc1Nc1cc(C2CC2)n[nH]1` (single isomer, unassigned) [Example 160], the Ki in assay [1] (setting [3]) stood at 6.9 nM; in assay [2] (setting [4]), 1 nM.

As to `COc1cc2c(NS(=O)(=O)c3c(OC)cc(N4C(=O)CCC45CCC5)cc3OC)noc2cc1Nc1cc(C2CC2)n[nH]1` [Example 255, N-{6-[(3-cyclopropyl-1 H-pyrazol-5-yl)amino]-5-methoxy-1,2-benzoxazol-3-yl}-2,6-dimethoxy-4-(6-oxo-5-azaspiro[3.4]octan-5-yl)benzene-1-sulfonamide], the Ki in assay [1] (setting [5]) was found to be 4.2 nM; in assay [2] (setting [6]), 0.8 nM.

Regarding `COc1cc2c(NS(=O)(=O)c3c(OC)cc(C4CN(C5CCOC5)C4)cc3OC)noc2cc1Nc1cc(C2CC2)n[nH]1` (racemic) [Example 187, N-{6-[(3-cyclopropyl-1H-pyrazol-5-yl)amino]-5-methoxy-1,2-benzoxazol-3-yl]-2,6-dimethoxy-4-[1-(oxolan-3-yl)azetidin-3-yl]benzene-1-sulfonamide], the values for the Ki in assay [1] (setting [3]) and in assay [2] (setting [4]) were 13.1 nM and 2.2 nM, respectively.

In the case of `COc1cc2c(NS(=O)(=O)c3c(OC)cc(-c4ncc5c(n4)CN(C)CC5)cc3OC)noc2cc1Nc1cc(C2CC2)n[nH]1` [Example 225, N-{6-[(3-cyclopropyl-1 H-pyrazol-5-yl)amino]-5-methoxy-1,2-benzoxazol-3-yl}-2,6-dimethoxy-4-(7-methyl-5,6,7,8-tetrahydropyrido[3,4-d]pyrimidin-2-yl)benzene-1-sulfonamide], the figures for the Ki in assay [1] (setting [3]) and in assay [2] (setting [4]) were 7 nM and 0.6 nM, respectively.

As to `CCc1nc(Nc2cc3onc(NS(=O)(=O)c4c(OC)cccc4OC)c3cc2OC)no1` [Example 43, N-{6-[(5-ethyl-1,2,4-oxadiazol-3-yl)amino]-5-methoxy-1,2-benzoxazol-3-yl}-2,6-dimethoxybenzene-1-sulfonamide], the results for the Ki in assay [1] (setting [3]) and in assay [2] (setting [4]) were more than 2340 nM and 55.5 nM, respectively.

`COc1cccc(OC)c1S(=O)(=O)Nc1noc2cc(NC3COC3)cc(OC)c12` [Example 11, 2,6-dimethoxy-N-{4-methoxy-6-[(oxetan-3-yl)amino]-1,2-benzoxazol-3-yl}benzene-1-sulfonamide]: the Ki in assay [1] (setting [3]) is more than 2340 nM; in assay [2] (setting [4]), 31.1 nM.

For the molecule `COc1cc2c(NS(=O)(=O)c3c(OC)cccc3OC)noc2cc1Nc1c(C(N)=O)c(C)nn1C` [Example 58, 5-({3-[(2,6-dimethoxybenzene-1-sulfonyl)amino]-5-methoxy-1,2-benzoxazol-6-yl}amino)-1,3-dimethyl-1H-pyrazole-4-carboxamide], the values for the Ki in assay [1] (setting [3]) and in assay [2] (setting [4]) were more than 12500 nM and 5.7 nM, respectively.

In the case of `COc1cc2c(NS(=O)(=O)c3c(OC)cccc3OC)noc2cc1Nc1cc(C2CC2)nn1C` [Example 48, N-{6-[(3-cyclopropyl-1-methyl-1H-pyrazol-5-yl)amino]-5-methoxy-1,2-benzoxazol-3-yl}-2,6-dimethoxybenzene-1-sulfonamide], the Ki in assay [1] (setting [3]) was more than 12500 nM.
